Measured values: PubChem BioAssay (NCI)
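Where inhibition never reached the appropriate level, the endpoint shown equals the highest concentration tested. Otherwise, values were interpolated linearly from a five-concentration, 48-hour dose response in 96-well plates. TGI is the concentration that stops growth completely.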

Legend:
Test in all cases: NCI-60 cell line screen, 48 h
[1] = tested on: 786-0 renal
[2] = tested on: A498 renal
[3] = tested on: A549 NSCLC
[4] = tested on: ACHN renal
[5] = tested on: BT-549 breast
[6] = tested on: CAKI-1 renal
[7] = tested on: CCRF-CEM leukemia
[8] = tested on: COLO 205 colon
[9] = tested on: DU-145 prostate
[10] = tested on: EKVX NSCLC
[11] = tested on: HCT-116 colon
[12] = tested on: HCT-15 colon
[13] = tested on: HOP-62 NSCLC
[14] = tested on: HS 578T breast
[15] = tested on: HT29 colon
[16] = tested on: IGROV1 ovarian
[17] = tested on: K-562 leukemia
[18] = tested on: KM12 colon
[19] = tested on: LOX IMVI melanoma
[20] = tested on: M14 melanoma
[21] = tested on: MALME-3M melanoma
[22] = tested on: MCF7 breast
[23] = tested on: MDA-MB-231 breast
[24] = tested on: MDA-MB-435
[25] = tested on: MDA-N
[26] = tested on: MOLT-4 leukemia
[27] = tested on: NCI-H226 lung
[28] = tested on: NCI-H23 lung
[29] = tested on: NCI-H522 lung
[30] = tested on: NCI/ADR-RES ovarian
[31] = tested on: OVCAR-3 ovarian
[32] = tested on: OVCAR-4 ovarian
[33] = tested on: OVCAR-5 ovarian
[34] = tested on: OVCAR-8 ovarian
[35] = tested on: PC-3 prostate
[36] = tested on: RPMI-8226 leukemia
[37] = tested on: RXF 393 renal
[38] = tested on: SF-268 CNS
[39] = tested on: SF-295 CNS
[40] = tested on: SK-MEL-2 melanoma
[41] = tested on: SK-MEL-28 melanoma
[42] = tested on: SK-MEL-5 melanoma
[43] = tested on: SK-OV-3 ovarian
[44] = tested on: SN12C renal
[45] = tested on: SNB-19 CNS
[46] = tested on: SNB-75 CNS
[47] = tested on: SR leukemia
[48] = tested on: SW-620 colon
[49] = tested on: T-47D breast
[50] = tested on: TK-10 renal
[51] = tested on: U251 CNS
[52] = tested on: UACC-257 melanoma
[53] = tested on: UACC-62 melanoma
[54] = tested on: UO-31 renal
[55] = tested on: HCC-2998 colon
[56] = tested on: HOP-92 NSCLC
[57] = tested on: NCI-H460 lung
[58] = tested on: SF-539 CNS

`CC(Cc1ccc(Cl)cc1Cl)NO` (stereo not given) was tested, and the TGI [1] was greater than 100 µM, the TGI [2] was greater than 100 µM and the TGI [3] was greater than 100 µM. It also gave a TGI [4] greater than 100 µM, a TGI [5] greater than 100 µM and a TGI [6] greater than 100 µM. The TGI [7] was greater than 100 µM, the TGI [8] was greater than 100 µM and the TGI [9] was greater than 100 µM. It also gave a TGI [10] greater than 100 µM, a TGI [11] greater than 100 µM and a TGI [12] greater than 100 µM. The TGI [13] was greater than 100 µM, the TGI [14] was greater than 100 µM and the TGI [15] was greater than 100 µM. The TGI [16] was greater than 100 µM, the TGI [17] was greater than 100 µM and the TGI [18] was greater than 100 µM. It also gave a TGI [19] greater than 100 µM, a TGI [20] greater than 100 µM and a TGI [21] greater than 100 µM. For the same molecule, the TGI [22] was greater than 100 µM, the TGI [23] was greater than 100 µM and the TGI [24] was greater than 100 µM. The TGI [25] was greater than 100 µM, the TGI [26] was greater than 100 µM and the TGI [27] was greater than 100 µM. It also gave a TGI [28] greater than 100 µM, a TGI [29] greater than 100 µM and a TGI [30] greater than 100 µM. The TGI [31] was greater than 100 µM, the TGI [32] was greater than 100 µM and the TGI [33] was greater than 100 µM. It also gave a TGI [34] greater than 100 µM, a TGI [35] greater than 100 µM and a TGI [36] greater than 100 µM. The TGI [37] was greater than 100 µM, the TGI [38] was greater than 100 µM and the TGI [39] was greater than 100 µM. It also gave a TGI [40] greater than 100 µM, a TGI [41] greater than 100 µM and a TGI [42] greater than 100 µM. The TGI [43] was greater than 100 µM, the TGI [44] was greater than 100 µM and the TGI [45] was greater than 100 µM. The TGI [46] was greater than 100 µM, the TGI [47] was greater than 100 µM and the TGI [48] was greater than 100 µM. It also gave a TGI [49] greater than 100 µM, a TGI [50] greater than 100 µM and a TGI [51] greater than 100 µM. For the same molecule, the TGI [52] was greater than 100 µM, the TGI [53] was greater than 100 µM and the TGI [54] was greater than 100 µM.
With `C[C@H](CCC1=NCCN1)[C@H]1CC[C@H]2[C@@H]3[C@H](O)C[C@@H]4C[C@H](O)CC[C@]4(C)[C@H]3CC[C@]12C` the TGI [1] was 27.7 µM, the TGI [2] was 26.1 µM and the TGI [4] was 30 µM. For the same molecule, the TGI [5] was 24.7 µM, the TGI [6] was 40.9 µM and the TGI [7] was 32.9 µM. It also gave a TGI [8] of 21.1 µM, a TGI [9] of 27.3 µM and a TGI [10] of 32.3 µM. It also gave a TGI [55] of 28.5 µM, a TGI [11] of 26.4 µM and a TGI [12] of 30.1 µM. The TGI [13] was 29.7 µM, the TGI [56] was 21.8 µM and the TGI [14] was 28.5 µM. It also gave a TGI [15] of 10.4 µM, a TGI [16] of 23.9 µM and a TGI [17] of 21.6 µM. For the same molecule, the TGI [18] was 27.7 µM, the TGI [19] was 22.8 µM and the TGI [20] was 28.6 µM. For the same molecule, the TGI [21] was 29.2 µM, the TGI [22] was 28.5 µM and the TGI [23] was 33.5 µM. The TGI [24] was 26.7 µM, the TGI [25] was 32.7 µM and the TGI [26] was 27.3 µM. The TGI [27] was 30.2 µM, the TGI [28] was 27.3 µM and the TGI [57] was 24.3 µM. The TGI [29] was 28.5 µM, the TGI [30] was greater than 100 µM and the TGI [31] was 26.6 µM. It also gave a TGI [32] of 28.1 µM, a TGI [33] of 27.5 µM and a TGI [34] of 29 µM. It also gave a TGI [35] of 21 µM, a TGI [36] of 35.3 µM and a TGI [37] of 31.6 µM. It also gave a TGI [38] of 26 µM, a TGI [39] of 28.9 µM and a TGI [58] of 25.5 µM. It also gave a TGI [40] of 29.9 µM, a TGI [41] of 27.2 µM and a TGI [42] of 27.3 µM. The TGI [43] was 33.1 µM, the TGI [44] was 37 µM and the TGI [45] was 26.1 µM. The TGI [46] was 22.4 µM, the TGI [48] was 30.1 µM and the TGI [49] was 31.3 µM. It also gave a TGI [50] of 26.7 µM, a TGI [51] of 26.5 µM and a TGI [52] of 28.3 µM. It also gave a TGI [53] of 23.5 µM and a TGI [54] of 27.8 µM.
